Experimental data: the NIST ThermoML archive (doi:10.1021/je900916e)

Assay: cn = amount concentration of the nth substance listed, in mol/dm3
Details: 101 kPa, Liquid, Advanced Condctivity Orion 162A

N.O=C(O)C(F)(F)C(F)(F)C(F)(F)C(F)(F)C(F)(F)C(F)(F)C(F)(F)F [ammonium perfluorooctanoate] + O
Details	electrical conductivity [S/m]
288.15 K, c1 = 0.002632	0.019
288.15 K, c1 = 0.005195	0.0351
288.15 K, c1 = 0.007692	0.051
288.15 K, c1 = 0.01013	0.0665
288.15 K, c1 = 0.0125	0.0805
288.15 K, c1 = 0.01481	0.0943
288.15 K, c1 = 0.01707	0.1074
288.15 K, c1 = 0.01928	0.1198
288.15 K, c1 = 0.02143	0.1318
288.15 K, c1 = 0.02353	0.1429
288.15 K, c1 = 0.02558	0.1533
288.15 K, c1 = 0.02759	0.163
288.15 K, c1 = 0.02955	0.1691
288.15 K, c1 = 0.03146	0.174
288.15 K, c1 = 0.03333	0.1785
288.15 K, c1 = 0.03516	0.1828
288.15 K, c1 = 0.03696	0.187
288.15 K, c1 = 0.03957	0.1926
288.15 K, c1 = 0.04211	0.1982
288.15 K, c1 = 0.04456	0.2036
288.15 K, c1 = 0.04694	0.209
288.15 K, c1 = 0.05	0.2155
288.15 K, c1 = 0.05294	0.2216
288.15 K, c1 = 0.05577	0.2275
293.15 K, c1 = 0.002632	0.021
293.15 K, c1 = 0.005195	0.0402
293.15 K, c1 = 0.007692	0.0582
293.15 K, c1 = 0.01013	0.0753
293.15 K, c1 = 0.0125	0.092
293.15 K, c1 = 0.01481	0.1078
293.15 K, c1 = 0.01707	0.1224
293.15 K, c1 = 0.01928	0.1364
293.15 K, c1 = 0.02143	0.1498
293.15 K, c1 = 0.02353	0.1625
293.15 K, c1 = 0.02558	0.1735
293.15 K, c1 = 0.02759	0.1815
293.15 K, c1 = 0.02955	0.1888
293.15 K, c1 = 0.03146	0.1942
293.15 K, c1 = 0.03333	0.1995
293.15 K, c1 = 0.03516	0.2045
293.15 K, c1 = 0.03696	0.209
293.15 K, c1 = 0.03957	0.216
293.15 K, c1 = 0.04211	0.222
293.15 K, c1 = 0.04536	0.231
293.15 K, c1 = 0.04848	0.239
293.15 K, c1 = 0.05149	0.247
293.15 K, c1 = 0.05437	0.2545
298.15 K, c1 = 0.002817	0.0241
298.15 K, c1 = 0.005556	0.0457
298.15 K, c1 = 0.008219	0.0665
298.15 K, c1 = 0.01081	0.0848
298.15 K, c1 = 0.01333	0.1033
298.15 K, c1 = 0.01579	0.1221
298.15 K, c1 = 0.01818	0.1411
298.15 K, c1 = 0.02051	0.1577
298.15 K, c1 = 0.02278	0.1735
298.15 K, c1 = 0.025	0.1884
298.15 K, c1 = 0.02716	0.199
298.15 K, c1 = 0.02927	0.2067
298.15 K, c1 = 0.03132	0.2144
298.15 K, c1 = 0.03333	0.2207
298.15 K, c1 = 0.03529	0.2269
298.15 K, c1 = 0.03721	0.2337
298.15 K, c1 = 0.03908	0.2394
298.15 K, c1 = 0.04091	0.2452
298.15 K, c1 = 0.0427	0.251
298.15 K, c1 = 0.04444	0.2558
298.15 K, c1 = 0.04699	0.2635
298.15 K, c1 = 0.04946	0.2721
298.15 K, c1 = 0.05185	0.2798
298.15 K, c1 = 0.05417	0.2856
298.15 K, c1 = 0.05641	0.2923
303.15 K, c1 = 0.002632	0.0264
303.15 K, c1 = 0.005195	0.0503
303.15 K, c1 = 0.007692	0.0726
303.15 K, c1 = 0.01013	0.0937
303.15 K, c1 = 0.0125	0.1137
303.15 K, c1 = 0.01481	0.1325
303.15 K, c1 = 0.01707	0.1505
303.15 K, c1 = 0.01928	0.1679
303.15 K, c1 = 0.02143	0.1833
303.15 K, c1 = 0.02353	0.1983
303.15 K, c1 = 0.02558	0.2125
303.15 K, c1 = 0.02759	0.221
303.15 K, c1 = 0.02955	0.229
303.15 K, c1 = 0.03146	0.236
303.15 K, c1 = 0.03333	0.243
303.15 K, c1 = 0.03516	0.2495
303.15 K, c1 = 0.03696	0.256
303.15 K, c1 = 0.03957	0.2645
303.15 K, c1 = 0.04211	0.273
303.15 K, c1 = 0.04456	0.281
303.15 K, c1 = 0.04694	0.289
303.15 K, c1 = 0.05	0.299
303.15 K, c1 = 0.05294	0.309
303.15 K, c1 = 0.05577	0.3185
308.15 K, c1 = 0.002632	0.0291
308.15 K, c1 = 0.005195	0.0556
308.15 K, c1 = 0.007692	0.0802
308.15 K, c1 = 0.01013	0.1034
308.15 K, c1 = 0.0125	0.1244
308.15 K, c1 = 0.01481	0.1452
308.15 K, c1 = 0.01707	0.165
308.15 K, c1 = 0.01928	0.1844
308.15 K, c1 = 0.02143	0.203
308.15 K, c1 = 0.02353	0.22
308.15 K, c1 = 0.02558	0.232
308.15 K, c1 = 0.02759	0.242
308.15 K, c1 = 0.02955	0.251
308.15 K, c1 = 0.03146	0.259
308.15 K, c1 = 0.03333	0.267
308.15 K, c1 = 0.03516	0.274
308.15 K, c1 = 0.03696	0.281
308.15 K, c1 = 0.03957	0.291
308.15 K, c1 = 0.04211	0.301
308.15 K, c1 = 0.04456	0.3105
308.15 K, c1 = 0.04772	0.322
308.15 K, c1 = 0.05075	0.333
308.15 K, c1 = 0.05366	0.344
313.15 K, c1 = 0.002632	0.0318
313.15 K, c1 = 0.005195	0.0606
313.15 K, c1 = 0.007692	0.0875
313.15 K, c1 = 0.01013	0.1126
313.15 K, c1 = 0.0125	0.1364
313.15 K, c1 = 0.01481	0.1592
313.15 K, c1 = 0.01707	0.1811
313.15 K, c1 = 0.01928	0.2025
313.15 K, c1 = 0.02143	0.223
313.15 K, c1 = 0.02353	0.241
313.15 K, c1 = 0.02558	0.256
313.15 K, c1 = 0.02759	0.267
313.15 K, c1 = 0.02955	0.277
313.15 K, c1 = 0.03146	0.286
313.15 K, c1 = 0.03333	0.295
313.15 K, c1 = 0.03516	0.303
313.15 K, c1 = 0.03696	0.311
313.15 K, c1 = 0.03957	0.322
313.15 K, c1 = 0.04211	0.333
313.15 K, c1 = 0.04456	0.344
313.15 K, c1 = 0.04694	0.354
313.15 K, c1 = 0.05	0.367
313.15 K, c1 = 0.05294	0.38
318.15 K, c1 = 0.002632	0.0344
318.15 K, c1 = 0.005195	0.0656
318.15 K, c1 = 0.007692	0.0948
318.15 K, c1 = 0.01013	0.1225
318.15 K, c1 = 0.0125	0.1474
318.15 K, c1 = 0.01481	0.1726
318.15 K, c1 = 0.01707	0.1968
318.15 K, c1 = 0.01928	0.219
318.15 K, c1 = 0.02143	0.241
318.15 K, c1 = 0.02353	0.262
318.15 K, c1 = 0.02558	0.279
318.15 K, c1 = 0.02759	0.292
318.15 K, c1 = 0.02955	0.303
318.15 K, c1 = 0.03146	0.313
318.15 K, c1 = 0.03333	0.323
318.15 K, c1 = 0.03516	0.3325
318.15 K, c1 = 0.03696	0.3415
318.15 K, c1 = 0.03957	0.3535
318.15 K, c1 = 0.04211	0.3655
318.15 K, c1 = 0.04456	0.377
318.15 K, c1 = 0.04772	0.3915
318.15 K, c1 = 0.05074	0.4055
318.15 K, c1 = 0.05366	0.419
